Measured values published in patent US12667565B2, “Use of composition for enhancing anticancer effect, comprising ERRy inhibitor as active ingredient” (NOVMETAPHARMA CO., LTD., priority 2019, dated 2026).

What was measured:
Huh7-SR cell line [1] = assay: ROS generation measured by FACS with H2-DCF-DA; assay type: cell-based; details: DN200434 12 μM and sorafenib 10 μM, 24 hours, FIG. 3A
Protocol: (§1) The present inventors have performed experiments using sorafenib-resistant liver cancer cell lines (Huh7-SR and SK-Hep-R cell lines) and a liver cancer cell line-derived animal model (xenograft). To determine an effect of the synthetic compound DN200434, which is an inverse agonist against ERRγ, on the proliferation of liver cancer cells and ROS generation, ROS was measured using a cell count and 2′,7-dichlorofluorescin diacetate (DCF-DA). […]
(§2) In order to investigate an effect of the compound (DN200434) represented by Formula 1, which is an inverse agonist against ERRγ, on ROS generation in sorafenib-resistant liver cancer cells, the effect was measured by FACS using 2′,7′-dichlorohydrofluorescein diacetate (H2-DCF-DA; Invitrogen, USA) as an ROS probe. […] Then, the cells were incubated for 30 minutes, and washed with PBS, and data was collected using a BD Accuri™ C6 flow cytometer (BD Bioscience, USA), and analyzed using an Accuri™ C6 analysis program (BD Bioscience, USA). To determine the number of cells, the sorafenib-resistant liver cancer cell line was treated with the DN200434 compound (12 μM) in combination with sorafenib (10 μM), and stained with trypan blue, and the number of cells was then measured using a hemocytometer.

SK-Hep-R cell line [2] = assay: ROS generation measured by FACS with H2-DCF-DA; assay type: cell-based; details: DN200434 12 μM and sorafenib 10 μM, 24 hours, FIG. 3B
Protocol: as §1, §2

[3] = tested on: Huh7-R sorafenib-resistant liver cancer cell line; assay: Cell proliferation (trypan blue cell count, hemocytometer); assay type: cell-based; details: FIG. 4A
Protocol: (§3) The present inventors have performed experiments using sorafenib-resistant liver cancer cell lines (Huh7-SR and SK-Hep-R cell lines) and a liver cancer cell line-derived animal model (xenograft). To determine an effect of the synthetic compound DN200434, which is an inverse agonist against ERRγ, on the proliferation of liver cancer cells and ROS generation, ROS was measured using a cell count and 2′,7-dichlorofluorescin diacetate (DCF-DA). Finally, after a sorafenib-resistant liver cancer cell line was injected into […] to induce the formation of sorafenib-resistant liver cancer, changes in size of liver cancer were confirmed in the group injected with the inverse agonist against ERRγ (DN200434) and sorafenib and the group injected with the control drug.
(§4) In order to investigate an effect of the compound (DN200434) represented by Formula 1, which is an inverse agonist against ERRγ, on ROS generation in sorafenib-resistant liver cancer cells, the effect was measured by FACS using 2′,7′-dichlorohydrofluorescein diacetate (H2-DCF-DA; Invitrogen, USA) as an ROS probe. Drug-resistant cells were treated with sorafenib (10 μM) and the DN200434 compound (12 μM) for 24 hours, and 10 μM H2-DCF-DA was added to the cells. Then, the cells were incubated for 30 minutes, and washed with PBS, and data was collected using a BD Accuri™ C6 flow cytometer (BD Bioscience, USA), and analyzed using an Accuri™ C6 analysis program (BD Bioscience, USA). To determine the number of cells, the sorafenib-resistant liver cancer cell line was treated with the DN200434 compound (12 μM) in combination with sorafenib (10 μM), and stained with trypan blue, and the number of cells was then measured using a hemocytometer.

[4] = tested on: SK-Hep-R sorafenib-resistant liver cancer cell line; assay: as above; assay type: cell-based; details: FIG. 4B
Protocol: as §3, §4

[5] = tested on: sorafenib-resistant liver cancer cell line Huh7-R; assay: Sorafenib-resistant liver cancer animal model (xenograft); assay type: in vivo, mice
Protocol: as §3
(§5) The sorafenib-resistant liver cancer cell line Huh7-R was injected into mice in order to construct a sorafenib-resistant liver cancer animal model (xenograft). Thereafter, the inverse agonist against ERRγ (e.g., DN200434 (Formula 1)) was administered in combination with sorafenib, and the size change of the formed mass was measured. In this case, the group in which the sorafenib-resistant liver cancer-derived animal model was treated with sorafenib alone was used as the comparative control.

[6] = tested on: sorafenib-resistant liver cancer cell line SK-Hep-R; assay: as above; assay type: in vivo, mice
Protocol: as §3, §5
An animal model derived from the sorafenib-resistant liver cancer cell line SK-Hep-R was constructed in the same manner as described above, and the effect of co-administration of the DN200434 compound represented by Formula 1, which is an inverse agonist against ERRγ, and sorafenib was confirmed.

Huh7-SR cell line [7] = assay: Cell death by sorafenib (annexin/PI FACS, cleaved caspase-3); assay type: cell-based; details: Huh7-SR cells; FIGS. 1A to 1C
Protocol: (§6) Hepatocarcinoma cell lines [Huh7 cells (Korea Cell Line Bank (KCLB) No. 60104), SK-Hep cells (ATCC® HTB-52™)] were continuously exposed to sorafenib (gradually increasing to 10 μM) to construct sorafenib-resistant liver cancer cell lines (Huh7-SR and SK-Hep-R cell lines). To evaluate the cancer cell death by FACS, first, a cancer cell line was incubated in FITC-bound annexin and propidium iodide (PI) for 15 minutes, and annexin and PI binding were then measured by flow cytometry to acquire data using a BD Accuri C6 flow cytometer (BD Biosciences) and analyzed with the Accuri C6 analysis program (BD Biosciences)/FlowJo software (FlowJo, LLC.). Cancer cell line death was evaluated using a cleaved caspase-3 antibody (Cell Signaling Technology).

SK-Hep-R cell line [8] = assay: as above; assay type: cell-based; details: SK-Hep-R cells; FIGS. 1A to 1C
Protocol: as §6

[9] = DN200434 12 μM in combination with sorafenib 10 μM

Compound	ROS (Huh7-SR cell line [1])	ROS (SK-Hep-R cell line [2])	cell proliferation [3, 9]	cell proliferation [4, 9]	body weight change ([5]; in combination with sorafenib vs sorafenib-alone control, FIG. 5D)	tumor size ([5]; in combination with sorafenib, compared to sorafenib-alone control, FIG. 5A)	tumor weight ([5]; in combination with sorafenib, compared to sorafenib-alone control, FIG. 5B)	tumor volume ([5]; in combination with sorafenib, compared to sorafenib-alone control, FIG. 5C)	body weight change ([6]; in combination with sorafenib vs sorafenib-alone control, FIG. 6D)	tumor size ([6]; in combination with sorafenib, compared to sorafenib-alone control, FIG. 6A)	tumor weight ([6]; in combination with sorafenib, compared to sorafenib-alone control, FIG. 6B)	tumor volume ([6]; in combination with sorafenib, compared to sorafenib-alone control, FIG. 6C)	cell death by sorafenib (Huh7-SR cell line [7])	cell death by sorafenib (SK-Hep-R cell line [8])	cell proliferation ([3]; sorafenib alone)	cell proliferation ([4]; sorafenib alone)
CC(C)N1CCN(c2ccc(/C(=C(/CCCO)c3ccccc3)c3ccc(O)cc3)cc2)CC1 [DN200434]	increase	increase	significantly decreased	significantly decreased	no difference	significantly decreased	significantly decreased	significantly decreased	no difference	remarkably decreased	remarkably decreased	remarkably decreased				
CNC(=O)c1cc(Oc2ccc(NC(=O)Nc3ccc(Cl)c(C(F)(F)F)c3)cc2)ccn1 [sorafenib, reference compound]													did not increase	did not increase	not affected	not affected
